The subject of one test is rat model of APN. Briefly: In vivo rat model of acute pyelonephritis (APN), bacteria introduced in the bladder. On the procedure: An in vivo experimental model of APN was used where bacteria are introduced in the bladder of rat (Gupta et al. (1995) J. Med. Microbiol. 43:33-36). Experiments were performed on outbred white female rats (180-200 g) fed ad libitum. Animal protocols were approved by the Institutional Review Boards. Rats were anesthetized with chloral hydrate (300 mg/kg, intraperitoneally(ip)). The animals were infected intraurethrally using a soft Intramedic non-radio-opaque polyethylene catheter (Clay Adams, USA). The inoculum (5 ml per kg, 1×10^8 CFU/ml of rat fecal bacterial composition) was injected slowly to avoid any leakage […]. Control animals were untreated. The therapeutic protocol of SkQR1 used to treat this pathology was as follows: […], with subsequent injections of the same amount of SkQR1 at 12, 24, 36 and 48 hrs; in total, each animal received 500 nmol SkQR1 per kg. […]
Kidney mitochondria were isolated by homogenization and differential centrifugation in a medium containing 250 mM sucrose, 20 mM HEPES-KOH, 1 mM EGTA and 0.1% BSA, pH7.4. Total mitochondrial protein was determined using a bicinchoninic acid protein assay kit (Sigma-Aldrich, USA). The mitochondria from cultured kidney cells were isolated by the same protocol.
(§1) The ROS-sensitive fluorescent probe 2,7-DCF-DA (Molecular Probes, USA) dissolved in DMEM/F12 without bicarbonate (final concentration 10 μM) was added to renal cells (500 μl per well of 24-well plate, 2 ml per dish) and incubated for 15 min at 37° C. followed by a wash with DMEM/F12 without bicarbonate. MDA was determined as in (Mihara and Uchiyama (1978) Anal. Biochem. 86:271-8). Fluorescent probe, DAF-2-DA (Calbiochem, San Diego, Calif., USA) was used for NO determination in living cells. The procedure was the same as for 2,7-DCF-DA. The nitrite/nitrate concentration (as products of NO oxidation) in culture media was determined using Nitrite/Nitrate Assay Kit (Sigma-Aldrich, USA). TNFα was determined using the kit Rat TNFα ELISA Ready-SET-Go (Ebioscience, USA).
The kidney was isolated immediately after sacrificing the animal and perfused with ice-cold PBS. It was then fixed in a 10% neutral buffered formalin solution, embedded in paraffin and used for histopathological examination. Five micrometer thick sections were cut, deparaffinized, hydrated, and stained with hematoxylin and eosin. The renal sections were examined in blinded fashion for inflammation and infiltration by leukocytes in the kidneys of all treated animals. A minimum of 10 fields for each kidney slide were examined and scored for pathologic severity.
The manifestation of inflammatory indicators (i.e., a number of infiltrated leukocytes in every layer and the presence of abscesses) under APN was evaluated using the following scale: 0, none; 1, 5-50 leukocytes in the view field; […]; 4, abscesses with pus-necrotic content. The distribution of inflammatory changes (i.e., comparative analysis of infiltration and abscesses) was evaluated by the following criteria: 0, none in any layer; 1, infiltration in the medullar layer; 2, infiltration reaching the cortex.
Kidney homogenates for MPO determination were centrifuged at 20000 g 15 min, the pellets were resuspended in 50 mM K-phosphate buffer containing 0.5% CTAB. Resulted samples were frozen and thawed three times and then centrifuged at 10600 g 10 min. Supernatants were analyzed for MPO activity in chromogenic reaction with o-phenylenediamine (OPD). 100 μl sample was mixed with 100 μl substrate buffer (25 mM Na-citrate, 50 mM Na-phosphate, 0.45 mg/ml OPD, 0.1% H2O2, pH 5.0) and was incubated 15 min at room temperature and then OD was detected at 492 nm.
Samples of kidney homogenates were loaded onto 15% Tris-glycine polyacrylamide gels (10-20 μg of total protein per lane). After electrophoresis, gels were blotted onto PVDF membranes (Amersham Pharmacia Biotech, UK). […]

For test [1], the system named is renal tubular cells (RTC). Kind of test: In vitro inflammation model: renal tubular cells co-cultivated with bacterial lysate-activated leukocytes. The class given is cell-based, rat. As to conditions: for renal cell death (Annexin V-positive): 48 hr exposure to activated leukocytes, pre-incubation with drug; for TNF release in RTC-leukocyte co-culture: activated leukocytes (LC+BL). Here is the method: Kidneys from 1-3 day old rats were excised under aseptic conditions. The tissue was blended and dissociated by collagenase treatment (0.5%, 30 min at 37° C.). The final suspension was centrifuged for 5 min at 50 g. The pellet was resuspended in about 10 ml of DMEM/F12 (Gibco, USA) supplemented with 10% FCS (Gibco, USA) and kept for 2 min, after which the supernatant was transferred to another tube and the pellet was repeatedly resuspended. After 10 min, the renal tubules were pelleted and dissociated cells remaining in the suspension were discarded. The pellet was resuspended in DMEM/F12 with 10% FCS and seeded onto 24-well plates or onto coverslips placed in 35-mm glass-bottom Petri dishes.
E. coli strain No. 85 was cultured overnight in a cultivation medium containing 1% tryptone, 0.5% yeast extract and 1% NaCl (Sigma-Aldrich, USA). The medium, containing roughly 10^9 colony-forming units (CFU) per ml, was pelleted at 300 g for 3 min. The bacterial lysate was prepared by diluting 30 ml of an overnight (ON) culture and diluting the precipitate in 3 ml of 0.9% NaCl followed by autoclaving for 1.5 hr at 120° C.
5 ml heparinized blood collected from the jugular vein of adult male rats was carefully layered over 5 ml of Ficoll-Urografin (density of 1.077 g/cm^3), and centrifuged for 30 min at 200 g. This procedure results in erythrocyte pelleting, while the mononuclear fraction of leukocytes forms an interphase ring on the Ficoll surface, which was carefully collected. Leukocytes were transferred into another tube and centrifuged for 3 min at 200 g. The resultant pellet was resuspended in 5 ml of DMEM/F12. After cell counting in a hemocytometer, the cells were diluted to a final concentration of about 1×10^5 cells per ml.
In a two-day old renal cell culture, the medium was substituted with DMEM/F12 (400 μl per well, 1600 μl per dish), supplemented with (depending on the purpose): GSK-3β inhibitor LiCl (9 mM) (Sigma-Aldrich, USA), water-soluble antioxidant Trolox (50 μM, 100 μM) (Sigma-Aldrich, USA), MTAs 10-(6-plastoquinonyl)decyl-triphenylphosphonium (SkQ1), synthesized according to Antonenko et al. (2008) Biochemistry (Mosc) 73:1273-87), 10 nM, 100 nM), and 10-(6′-plastoquinonyl) decylrhodamine 19 SkQR1), synthesized according to Antonenko (2008), (1 nM, 10 nM, or 100 nM). Renal cells were incubated for 2 hr in this medium, followed by supplementation with leukocytes or neutrophils in DMEM/F12, or DMEM/F12, alone, in the control sample (400 μl per well, 1600 μl per dish). Simultaneously, the bacterial lysate or lipopolysaccharide (100 ng/ml, LPS, Sigma-Aldrich, USA) solution in DMEM/F12 and DMEM/F12 alone in the control sample (100 μl per well, 400 μl per dish) were added. Renal cells, leukocytes (neutrophils) were co-cultivated for 24 or 48 hr with bacterial lysate or LPS. Cell death (both necrotic and apoptotic) rate was evaluated using Annexin-V FITC Kit (Invitrogen, USA).
as §1
Renal cells were imaged with an LSM510 inverted confocal microscope (Carl Zeiss Inc., Jena, Germany) with excitation at 488 nm and emission collected at 500 nm-530 nm with a pinhole diameter of 150 μm. Images were processed using ImageJ software (NIH, Bethesda, Md., USA).

“Also recorded” adds a separate entry of the source.

Take `CC/N=c1/cc2oc3cc(NCC)c(C)cc3c(-c3ccccc3C(=O)OCCCCCCCCCCC3=CC(=O)C(C)=C(C)C3=O)c-2cc1C` [SkQR1, 10-(6′-plastoquinonyl) decylrhodamine 19]: in the test with rat model of APN (3 days after infection, SkQR1), the “number of leukocytes in the blood” value is on record as “prevented an elevation”. Further, the “abscesses in kidneys of pyelonephritic rats” value in the test on rat model of APN (SkQR1 100 nmoles/kg ip at 1, 12, 24, 36, 48 hr after bacteria) is on record as “significantly less prevalent”. Moreover, the “MDA concentration in whole kidney tissue” value in the test with rat model of APN (SkQR1 100 nmoles/kg ip x5) is recorded as “significantly lower”. In addition, the “leukocyte infiltration in all kidney layers and spreading of the inflammatory process” value in the test on rat model of APN (SkQR1 100 nmoles/kg ip x5, histology) was “inhibited”. Also, the “kidney tissue concentration of TNFα” value in the test on rat model of APN (SkQR1-treated pyelonephritic rats vs APN rats without SkQR1) was “lower than in APN rats without SkQR1”. In addition, in the test on rat model of APN (SkQR1-treated rats), the “activation of pro-inflammatory signaling pathways in peripheral leukocytes” value was “suppressed” and the “other inflammation markers in blood (FIG. 8A-8C)” value is recorded as “decreased”. For the same compound, the animal survival entry with rat model of APN (SkQR1 during first two days after infection) is given as “significantly greater”. For the same compound, in the test on rat model of APN (Western blot), the “Bcl-2 changes in isolated kidney mitochondria (weaker 26 kD band, stronger 15 kD band)” value is given as “diminished”. For the same compound, in the test on rat model of APN (Western blot, lower in untreated pyelonephritic rats), the “level of IKB in leukocytes” value is “lower in untreated pyelonephritic rats but not in SkQR1-treated rats”. In the test on rat model of APN (Western blot, lowering seen with pyelonephritis), the “Bcl-2 level in total kidney homogenates” value was “absent in pyelonephritic rats receiving SkQR1”. In addition, in the test with rat model of APN (activated under APN), the “expression of toll receptors in different regions of the kidney” value was “normal expression”. For the same compound, the “tissue activity of myeloperoxidase (MPO), index of neutrophil infiltration” value in the test with rat model of APN (kidney, SkQR1 100 nmoles/kg ip x5) is “significantly inhibited”. Moreover, in the test on rat model of APN (leukocytes from pyelonephritic rats receiving SkQR1 vs untreated), the “ROS production (DCF fluorescence) in blood leukocytes” value is “lower than in untreated animals”. Further, the “ROS production in renal cells (DCF fluorescence)” value (“ROS production in renal cells” for short) in test [1] (10 nM, pretreatment 2 hr, co-cultivation with activated leukocytes) is recorded as “suppression of ROS production after co-cultivation with activated leukocytes to levels close to those observed on controls”. In addition, in test [1], the “renal cell death (Annexin V-positive)” value was “more pronounced than that afforded by the traditional water-soluble antioxidant, Trolox; also recorded: highest efficiency” and the “TNF release in RTC-leukocyte co-culture” value is listed as “did not have a significant effect”.
For `c1ccc2c(c1)[I+]c1ccccc1-2` [DPI, diphenyleneiodonium, reference compound], the “ROS production inside renal cells (DCF fluorescence)” value in test [1] (0.5 μM) is on record as “inhibited the ROS production”.
Consider `Cc1c(C)c2c(c(C)c1O)CCC(C)(C(=O)O)O2` (centres unmarked) [Trolox, reference compound], for which the “ROS production in renal cells” value in test [1] (100 μM, pretreatment 2 hr, co-cultivation with activated leukocytes) was “suppression of ROS production after co-cultivation with activated leukocytes to levels close to those observed on controls”. For the same compound, in test [1], the “TNF release in RTC-leukocyte co-culture” value is given as “did not have a significant effect”.
With `[Cl-].[Li+]` [LiCl, reference compound], in test [1], the “renal cell death (Annexin V-positive)” value was “protected renal cells from death and its effect was more profound than of Trolox”; the “TNF release in RTC-leukocyte co-culture” value was “did not have a significant effect”. The “ROS production in renal cells” value in test [1] (LiCl pre-treatment (9 mM)) was “had an antioxidative effect”.

Source of the values: US20160243136A1, “PHARMACEUTICAL FORMULATIONS CONTAINING MITOCHONDRIALLY TARGETED ANTIOXIDANTS” (Mitotech SA, priority 2013, published 2016).
